Results from patent publication US12636331B2, “Composition for preventing or treating lung cancer, comprising a compound isolated from Cephalotaxus extract as an active ingredient” (priority 2020, dated 2026).

Assays:
[1] = tested on: A549 tumorspheroids; experiment: 3D tumorspheroid growth (CellTiter-Glo 3D); type: cell-based
Method: (§1) A549 and NCI-H460 cell lines were placed in 96-well ultra-low attachment (ULA) plates at 7,000 and 1500 cells/well, and centrifuged at 1000 rpm for 10 minutes. Then, they were cultured in Roswell Park Memorial Institute (RPMI) 1640 medium mixed with 0.5% Matrigel, 10% Fetal Bovine Serum (FBS), and 1× penicillin-streptomycin for 2 days. They were treated with IHT, and the degree of cell growth was measured with CellTiter-Glo 3D (Promega, Madison, WI, USA) reagent after 72 hours, and 2D cultured cells were exposed to IHT at the indicated concentration for 48 hours, and then the cell growth was measured with CellTiter-Glo reagent. The average effective dose ED50 of IHT was determined by analyzing the dose-response curve with GraphPad Prism, and the results are shown in FIG. 2. The scale bar was 100 μm, and all data were expressed as mean±standard deviation.
(§2) After IHT was treated onto the 3D tumorspheroid of NCI-H460, or siNR4A1 and IHT were treated in combination on the 3D tumorspheroid of A549, the growth inhibition and cell death induction of tumorspheroids were observed. Negative control (siNC) or siNR4AT-transfected A549 and non-transfected NCI-H460 tumorspheroids were treated with IHT at each concentration, and after 48 and 72 hours, the cell growth was measured using CellTiter-Glo 3D cell viability assay kit (Promega). A549 cells were transfected with […] siRNA using Lipofectamine 2000 (Invitrogen), and siNR4A1 of SEQ ID NO: 1 (5′-GAGCUAUUCCAUGCCUACG-3′) and SEQ ID NO: 2 (5′-GGAUACUGGAUACACCCGU-3′) were mixed and used.

[2] = tested on: NCI-H460 tumorspheroids; experiment: 3D tumorspheroid growth (CellTiter-Glo 3D); type: cell-based
Method: as §1, §2

[3] = tested on: A549 cell line; experiment: 2D culture cell growth (CellTiter-Glo); type: cell-based; conditions: Homo sapiens; 2D culture A549, 48 hours; read-out: ED50, cell proliferation
Method: as §1

[4] = tested on: NCI-H460 cell line; experiment: 2D culture cell growth (CellTiter-Glo); type: cell-based; conditions: Homo sapiens; 2D culture NCI-H460, 48 hours; read-out: ED50, cell proliferation
Method: as §1

[5] = tested on: p21 protein; experiment: Western blot for p21 protein in 2D-cultured NCI-H460; type: cell-based; conditions: NCI-H460 2D, 48 hours, low concentrations below the ED50
Method: NCI-H460 cell line was cultured in 2D, treated with IHT at the indicated concentration for 48 hours, and then Western blots were performed to measure changes in p21 protein.
(§3) The cells were dissolved in a RIPA (radio immunoprecipitation) buffer containing protease inhibitors, phosphatase inhibitors, PMSF (phenylmethylsulfonyl fluoride), and DTT (dithiothreitol), and protein concentration was quantified with a micro BCA test kit. Equal amounts of protein was added to a polyacrylamide gel containing SDS (Sodium dodecyl sulphate), isolated by electrophoresis, and transferred to a polyvinylidene difluoride (PVDF) membrane. The membrane was blocked with a solution containing 5%-TBST (tris-buffered saline with Tween20) milk, and the primary antibody was exposed at 4 degrees Celsius for 16 hours.
The antibodies used were as follows: β-actin (sc-477778), p53 (sc-126), Bax (sc-526) (Santacruz Biotechnology); cleaved caspase-7 (Asp198) (#9491), cleaved poly (ADP-ribose) polymerase (PARP) (#9541), X chromosome-linked inhibitor of apoptosis (XIAP) (#2045), Survivin (#2808), p21 (#2947), phospho-Akt (#9275), cleaved caspase-9 (#9501), caspase-9 (#9502), caspas-8 (#9746), phospho-Stat3 (#9145) (Cell Signaling Technology). […]

[6] = tested on: NCI-H460 tumorspheroids; experiment: LIVE/DEAD cell death staining of tumorspheroids; type: cell-based; conditions: NCI-H460 tumorspheroids, 1,3,5 uM IHT, 72 hours
Method: (§4) After the IHT was treated with NCI-H460 and A549 tumorspheroids for 72 hours, the cell death was observed using LIVE/DEAD Viability/Cytotoxicity Kit (Thermo Scientific). Live cells were stained with green fluorescence-labeled calcein-AM, dead cells were stained with red fluorescence-labeled ethidium homodimer-1 (EthD-1), and images were taken at 100× magnification using the Operetta High Content Screening (HCS) System.

[7] = tested on: A549 tumorspheroids; experiment: LIVE/DEAD cell death staining of tumorspheroids; type: cell-based; conditions: 72 hours
Method: as §2, §4

[8] = tested on: A549 tumorspheroids; experiment: Apoptosis by Cell Death detection ELISA kit; type: cell-based; conditions: 72 hours
Method: (§5) An experiment was designed to confirm whether cell death induced in 3D tumorspheroids was apoptosis. Induction of apoptosis was examined after treating NCI-H460 tumorspheroids with IHT or treating A549 tumorspheroids with IHT along with siNC or siNR4A1. NCI-H460 and siRNA-treated A549 tumorspheroids were treated with IHT at the indicated concentrations for 72 hours, and then apoptosis was measured using a Cell Death detection ELISA kit. Further, after IHT treatment for 72 hours, single cells were isolated from tumorspheroids, stained with Annexin V and 7-AAD, and analyzed by a flow cytometry. Apoptotic cell population was represented as the ratio of cells in the early apoptotic processes that are annexin V-positive/7-AAD-negative, and terminal apoptotic process positive for both annexin V/7-AAD (FIG. 5). All data are expressed as mean±standard deviation. *p<0.05 indicates a significant difference compared to a control group, and **p<0.01 indicates a significant difference compared to a control group.

[9] = tested on: NCI-H460 tumorspheroids; experiment: Apoptosis by Cell Death detection ELISA kit; type: cell-based; conditions: 72 hours
Method: as §5

[10] = tested on: A549 tumorspheroids; experiment: Annexin V / 7-AAD flow cytometry; type: cell-based; conditions: 72 hours
Method: as §5
Further, using the phenomenon that annexin V was exposed to the outside of the cell membrane in the early stage of apoptosis, cells were stained with annexin V, stained with 7-Amino-Actinomycin D (7-AAD) penetrating into dead cells, and analyzed with a flow cytometry, thus showing apoptosis and cell death.

[11] = tested on: A549 tumorspheroids; experiment: Mitochondrial membrane potential (JC-1, flow cytometry); type: cell-based; conditions: IHT 1 uM and siNR4A1 simultaneously, 48 hours
Method: (§6) In the induction of apoptosis by the intrinsic pathway, a decisive process is the release of cytochrome C inside mitochondria to the outside due to changes in mitochondrial membrane potential. After 48 hours of treatment to measure mitochondrial membrane potential changes, tumorspheroids were isolated into single cells and stained with JC-1, and flow cytometry was used to measure the percentage of mitochondria-damaged cells. The percentage of cells in which JC-lexists as a single entity, meaning a decrease in mitochondrial membrane potential, was indicated. In addition, A549 tumorspheroids transfected with negative control (siNC) or siNR4A1 and NCI-H460 tumorspheroids were treated with IHT for 48 hours, and then subjected to Western blot analysis for apoptosis-related protein changes, and the results are shown in FIG. 6.

[12] = tested on: NCI-H460 tumorspheroids; experiment: as above; type: cell-based; conditions: 3 uM IHT, 48 hours
Method: as §6

[13] = tested on: A549 tumorspheroids; experiment: Western blot of apoptosis-related proteins; type: cell-based
Method: as §3
(§7) The antibodies used were as follows: β-actin (sc-477778), p53 (sc-126), Bax (sc-526) (Santacruz Biotechnology); cleaved caspase-7 (Asp198) (#9491), cleaved poly (ADP-ribose) polymerase (PARP) (#9541), X chromosome-linked inhibitor of apoptosis (XIAP) (#2045), Survivin (#2808), p21 (#2947), phospho-Akt (#9275), cleaved caspase-9 (#9501), caspase-9 (#9502), caspas-8 (#9746), phospho-Stat3 (#9145) (Cell Signaling Technology).
(§8) Subsequently, the membrane was washed with TBSP, and then exposed to the secondary antibody conjugated with HRP (horseradish peroxidase, Santacruz Biotechnology) at room temperature for 1 hour, washed, and film-developed using an ECL (enhanced chemiluminescence, Amersham) kit to observe the bands.
as §6

[14] = tested on: NCI-H460 tumorspheroids; experiment: Western blot of apoptosis-related proteins; type: cell-based
Method: as §3, §7, §8, §6

[15] = tested on: C. elegans jgIs25 (EGFR T790M-L858R); experiment: Multivulva (Muv) formation in C. elegans with EGFR double mutation; type: in vivo
From the text: In non-small cell lung cancer patients with EGFR (epidermal growth factor receptor) exon21 mutation (L858R), the therapeutic effect of EGFR-TKI (tyrosine kinase inhibitor) is excellent. However, tolerance develops quickly, one mechanism of which is because the second mutation (L858R, T790M) occurs in EGFR. C. elegans with EGFR double mutation (L858R, T790M) causes cell proliferation (multivulva formation). It was observed whether cell proliferation could be inhibited upon IHT treatment. This is an in vivo system that can predict the therapeutic effect of lung cancer resistant to EGFR-TKIs, by introducing genetic mutations observed in cells showing drug resistance to the EGFR-TKI (tyrosine kinase inhibitor) used as a therapeutic agent for human lung cancer.
After IHT treatment to C. elegans jgIs25, observations were performed using a differential interference contrast (DIC) microscope. 0.5% DMSO was used as a vehicle control. […] 0.1% DMSO as a control or 5 μM IHT was. Data are expressed as mean±standard error, **P<0.01 and ***P<0.001.

[16] = tested on: A549 xenograft tumors; experiment: A549 xenograft tumor growth; type: in vivo; conditions: athymic nude mice, intratumoral IHT 20 μg/kg (500 ng) twice a week with siNR4A1 once a week, 4 weeks
Method: Further, A549 cells (5×10^6) were inoculated into the dorsal side of athymic nude mice, and when the tumor size reached 100-150 mm^3, siRNA (50 pmoles) and IHT (500 ng) were intratumorally administered once a week and twice a week, respectively, for 4 weeks. The tumor size was monitored twice a week, and tumor volume was calculated by the following Equation 3. […] V(mm^3)=length×width×width/2 [Equation 3]

[17] = tested on: A549 tumorspheroids; experiment: Combined treatment of cisplatin and IHT, tumorspheroid cell growth; type: cell-based
Method: A549 tumorspheroids were grown for 3 days, then subjected to the combined treatment of cisplatin and IHT at the indicated concentrations.

[18] = A549 tumorspheroids with inhibition of NR4A1 expression (siNR4A1), IHT 1 uM

COC(=O)[C@@H](O)[C@](O)(CCC(C)C)C(=O)O[C@@H]1C(OC)=C[C@]23CCCN2CCc2cc4c(cc2C13)OCO4 (stereo partly shown) [IHT, isoharringtonine]
growth inhibition of tumorspheroids [1, 18]: rapid growth-inhibitory effect | growth inhibition of tumorspheroids ([1]; A549 tumorspheroids, IHT alone (siNC), 48 and 72 hours): did not have a significant growth-inhibitory effect | EC50 ([1]; Homo sapiens, A549 3D tumorspheroid, 72 hours, ED50 'predicted'): 9600 ± 1120 nM | EC50 ([2]; Homo sapiens, 3D tumorspheroid of NCI-H460, 72 hours, read-out: average effective amount (ED50), tumorspheroid growth): 143 ± 40 nM | growth inhibition of tumorspheroids ([2]; NCI-H460 tumorspheroids, 1,3,5 uM IHT, 48 and 72 hours): effectively induced at all concentrations | EC50 [3]: 481 ± 50 nM | EC50 [4]: 94 ± 20 nM | change in p21 protein [5]: increased p21 | cell death of tumorspheroids [6]: effectively induced at all concentrations | cell death of tumorspheroids [7, 18]: sharply induced cell death | cell death of tumorspheroids ([7]; A549 tumorspheroids, IHT alone): did not induce cell death | apoptosis (DNA fragments, ELISA) ([8]; IHT alone): apoptosis was not induced | apoptosis (DNA fragments, ELISA) ([8]; simultaneous treatment with siNR4A1, IHT 1 uM): sharply increased apoptosis | apoptosis (DNA fragments, ELISA) [9]: increased from 1 uM in a dose-dependent manner | apoptosis (annexin V/7-AAD) ([10]; IHT alone): did not induce apoptosis | apoptosis (annexin V/7-AAD) ([10]; simultaneous treatment with siNR4A1, IHT 1 μM): sharply increased apoptosis | mitochondrial membrane potential [11]: induced a decrease in mitochondrial membrane potential | mitochondrial membrane potential [12]: changes in mitochondrial membrane potential were induced | cleavage of caspase-9 ([13]; IHT+siNR4A1, 48 hours): induced the cleavage of caspoase-9 | Mcl-1 and XIAP protein ([13]; both IHT and siNR4A1, 48 hours): induced a reduction of Mcl-1 and XIAP | phospho-Akt ([13]; both IHT and siNR4A1, 48 hours): reduction of phospho-Akt | Bcl-2 and Mcl-1 protein ([14]; 48 hours): induces the reduction of Bcl-2 and Mcl-1 | Survivin and XIAP protein ([14]; 48 hours): induces the decrease of Survivin and XIAP | p53 protein ([14]; 48 hours): induces an increase in p53 | phospho-Akt ([14]; 48 hours): reduction of phospho-Akt | cleavage of caspase-9 ([14]; IHT 48 hours): induced the cleavage of caspoase-9 | multivulva formation ([15]; C. elegans jgIs25, high concentrations of IHT): multivulva formation was significantly inhibited | multivulva formation ([15]; C. elegans jgIs25, low IHT concentration (5 μM) with sinhr-6 (nhr-6 RNAi)): multivulva formation was significantly inhibited | multivulva formation ([15]; C. elegans jgIs25, low concentration (5 uM) IHT): multivulva formation was not inhibited | xenograft tumor suppression (tumor volume) [16]: tumor suppressive effects were observed | cell growth inhibition ([17]; A549 tumorspheroids, 10 μM IHT in combination with 10 μM cisplatin, 3 days): stronger inhibition of cell growth | cell growth inhibition ([17]; A549 tumorspheroids, 10 μM IHT, 3 days): very effectively inhibited | inhibition at 1 µM ([17]; Homo sapiens, A549, 72 h, read-out: cell growth inhibition): ~48%

N.N.[Cl][Pt][Cl] [cisplatin, reference compound]
inhibition of tumorspheroid growth ([17]; A549 tumorspheroids, 30 μM cisplatin alone, 3 days): significant but minute inhibition of growth
